Experimental data reported in patent US20260226069A1, “GCN2 AND PERK KINASE MODULATORS AND METHODS OF USE THEREOF” (Deciphera Pharmaceuticals, LLC, priority 2023, published 2026).

Columns and labels:
[1] = biological target: T1, GCN2 kinase (Homo sapiens, UniProt Q9P2K8); experiment: Biochemical assay for GCN2 (TR-FRET kinase activity assay); conditions: 2 nM GCN2, 1 mM ATP, 3-hour incubation
T1 construct: G556E with a; purchased Carna Biosciences
Experimental: Biochemical assay for GCN2
Activity of GCN2 kinase was determined using a TR-FRET kinase activity assay (e.g., Analytical Biochemistry, 2006, 356, 108-116). Assays were conducted in 384-well plates (13 μL assay volume) using 2 nM GCN2 (Carna Biosciences), 130 nM GFP-EIf2α (Invitrogen), 0.2 mg/mL E. coli tRNA (sigma) and 1 mM ATP in kinase buffer (Invitrogen). Inhibition of GCN2 was measured by adding serial diluted test compound (final assay concentration of 0.5% DMSO) followed by a 3-hour incubation. Tb-peIF2α (pSer52) antibody (Invitrogen) (2 nM final assay concentration) in kinase buffer containing EDTA (final assay concentration of 20 mM) was added. After a 60 min incubation at room temperature, TR-FRET was monitored using an excitation wavelength of 340 nm and emission wavelengths of 490 nm and 520 nm. The emission ratio (520/490) at each compound concentration of was converted to percent inhibition using controls (i.e., reaction with no test compound and reaction with a known inhibitor) and IC50 values were calculated by fitting a four-parameter sigmoidal curve to the data using Prism (GraphPad software).

[2] = biological target: T2, PERK kinase (Homo sapiens, UniProt Q9NZJ5, A704S); experiment: Biochemical assay for PERK (coupled pyruvate kinase/lactate dehydrogenase assay); conditions: 10 nM PERK, 1 mM ATP, reaction rate 2-3 h time frame, 30° C.
T2 construct: GST (with thrombin site LVPRGS); purchased Beryllium
Experimental: Biochemical Assay for PERK
Activity of PERK kinase was determined spectroscopically using a coupled pyruvate kinase/lactate dehydrogenase assay that continuously monitors the ATP hydrolysis-dependent oxidation of NADH (Science, 2000, 289, 1938-1942). Assays were conducted in 384-well plates (100 μL final volume) using 10 nM PERK (from Beryllium), 0.25 mg/mL Myelin Basic Protein substrate, 1.5 units pyruvate kinase, 2.1 units lactate dehydrogenase, 1 mM phosphoenol pyruvate, 0.28 mM NADH and 1 mM ATP in assay buffer (100 mM Tris, pH 7.5, 15 mM MgCl2, 0.5 mM DTT, 0.004% (w/v) BSA, and 0.004% Triton X-100). Inhibition of PERK was measured by adding serial diluted test compound (final assay concentration of 1% DMSO). A decrease in absorption at 340 nm was monitored continuously for 6 hours at 30° C. on a multi-mode microplate reader (BioTek). The reaction rate was calculated using the 2-3 h time frame. The reaction rate at each concentration of compound was converted to percent inhibition using controls (i.e., reaction with no test compound and reaction with a known inhibitor) and IC50 values were calculated using software routines in Prism (GraphPad software).

[3] = tested on: ASNase treated CCRF-CEM cells; experiment: CCRF-CEM ASNase cell proliferation assay, phenotypic assay for cellular inhibition of GCN2; type: cell-based; conditions: Homo sapiens, 1 mU/mL ASNase, 72 h, resazurin
Experimental: CCRF-CEM ASNase Cell Proliferation Assay, a Phenotypic Assay for Cellular Inhibition of GCN2.
CCRF-CEM leukemia cells (catalog #CCL-116) were obtained from the American Type Culture Collect (ATTC, Manassas, VA). Cells were grown in RPMI-1640 medium supplemented with 10% heat-inactivated fetal bovine serum (Invitrogen, Carlsbad, CA) and 1% Penicillin/Streptomycin/L-Glutamine at 37° C., 5% CO2, and 95% humidity. Cells were expanded until reaching one million cells per mL at which time they are subcultured or harvested for assay use. Ten thousand cells per well in 200 μL RPMI-1640 supplemented with 10% heat-inactivated fetal bovine serum and 1% Penicillin/Streptomycin were dispensed into a 96-well black clear bottom plate. A serial dilution of test compound and 1 mU/mL ASNase was added in triplicate and plates were incubated for 72 h at 37° C., 5% CO2, and 95% humidity. At the end of the incubation, 40 μL of a […] solution of resazurin (Sigma, St. Louis, MO) in PBS was added to each well of the plate and plates were incubated for an additional 6 h at 37° C., 5% CO2, and 95% humidity. Plates were read on a Synergy2 or equivalent reader (Biotek, Winooski VT) using an excitation of 540 nm and an emission of 600 nm. Data was analyzed using GraphPad Prism software (GraphPad, San Diego, CA) to calculate IC50 values.

[4] = tested on: ATF4 in Thapsigargin stimulated CCRF-CEM cells; experiment: CCRF-CEM TG ATF4 ELISA, phenotypic assay for cellular inhibition of PERK preactivated by thapsigargin; type: cell-based; conditions: Homo sapiens, 3 h, compound three hours then 1 μM thapsigargin for an additional hour
Experimental: CCRF-CEM TG ATF4 ELISA, a Phenotypic Assay for Cellular Inhibition of PERK Preactivated by Thapsigargin (TG)
CCRF-CEM leukemia cells (catalog #CCL-116) were obtained from the American Type Culture Collection (ATTC, Manassas, VA). Briefly, cells were grown in RPMI-1640 medium supplemented with 10% heat-inactivated fetal bovine serum (Invitrogen, Carlsbad, CA) and 1% Penicillin/Streptomycin/L-Glutamine at 37° C., 5% CO2, and 95% humidity. Cells were expanded until reaching one million cells per mL at which time they were subcultured or harvested for assay use. One million five hundred thousand cells per well in 1 mL complete growth medium were dispensed into 12-well plates and incubated overnight. A serial dilution of test compound was added and cells were incubated at 37° C., 5% CO2, and 95% for three hours, then 1 μM thapsigargin was added and cells were incubated for an additional hour at 37° C., 5% CO2, and 95%. Cells were lysed then ATF4 levels were measured using an ELISA assay (Proteintech, Rosemont, IL). Absorbance was measured at 450 nm and 544 nM using a Synergy2 or equivalent reader (Biotek, Winooski VT). Data was analyzed using PRISM software (Graphpad, San Diego, CA) to calculate IC50 values.

[5] = tested on: ATF4 in H929 Multiple Myeloma cells; experiment: H929 ATF4 ELISA assay; type: cell-based; conditions: four hours, fold stimulation of cellular ATF4 relative to vehicle treated control
Experimental: H929 multiple myeloma cells (catalog #CRL-9068) were obtained from the American Type Culture Collection (ATTC, Manassas, VA). Briefly, cells were grown in RPMI-1640 medium supplemented with 20% heat-inactivated fetal bovine serum (catalog #A3840002, ThermoFisher Scientific, Waltham, MA), 1% Penicillin/Streptomycin/L-Glutamine (catalog #10378016, ThermoFisher Scientific, Waltham, MA), and 0.05 mM 2-mercaptoethanol (catalog #21985-023, ThermoFisher Scientific, Waltham, MA) at 37° C., 5% CO2, and 95% humidity. Cells were expanded until reaching one million five hundred thousand cells per mL at which time they were sub-cultured or harvested for assay use. One million five hundred thousand cells per well in 1 mL complete growth medium were dispensed into 12-well plates and incubated overnight. A serial dilution of test compound was added, and cells were incubated at 37° C., 5% CO2, and 95% for four hours. Cells were lysed then ATF4 levels were measured using an ELISA assay (Proteintech, Rosemont, IL). Absorbance is measured at 450 nm and 544 nM using a Synergy2 or equivalent reader (Biotek, Winooski VT). Data were analyzed using PRISM software (Graphpad, San Diego, CA) to calculate fold stimulation of cellular ATF4 relative to vehicle treated control.

T2 sequence (Q9NZJ5 with tags, fused parts or gaps A704S): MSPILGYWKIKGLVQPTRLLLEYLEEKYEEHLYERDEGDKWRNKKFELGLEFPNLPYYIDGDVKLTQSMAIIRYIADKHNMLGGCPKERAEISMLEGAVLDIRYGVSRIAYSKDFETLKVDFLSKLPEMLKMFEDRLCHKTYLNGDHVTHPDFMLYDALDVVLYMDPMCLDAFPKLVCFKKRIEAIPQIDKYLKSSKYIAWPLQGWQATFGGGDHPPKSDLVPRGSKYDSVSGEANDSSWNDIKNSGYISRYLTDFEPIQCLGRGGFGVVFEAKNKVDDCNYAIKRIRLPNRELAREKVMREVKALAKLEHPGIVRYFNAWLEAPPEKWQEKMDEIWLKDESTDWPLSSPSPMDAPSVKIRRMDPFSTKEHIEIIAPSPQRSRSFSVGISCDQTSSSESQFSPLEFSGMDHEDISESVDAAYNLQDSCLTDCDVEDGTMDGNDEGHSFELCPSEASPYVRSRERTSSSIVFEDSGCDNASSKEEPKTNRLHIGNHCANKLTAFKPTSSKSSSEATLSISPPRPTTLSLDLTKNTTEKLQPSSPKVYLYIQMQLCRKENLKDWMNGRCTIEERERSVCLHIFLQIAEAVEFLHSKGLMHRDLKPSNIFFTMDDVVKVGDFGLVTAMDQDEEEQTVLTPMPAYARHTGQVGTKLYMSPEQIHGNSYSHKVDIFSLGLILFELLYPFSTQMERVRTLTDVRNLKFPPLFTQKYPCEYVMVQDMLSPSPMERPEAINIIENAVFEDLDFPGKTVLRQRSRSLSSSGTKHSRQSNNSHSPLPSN

CC(=O)OCc1cc(Cl)cc(S(=O)(=O)Nc2cccc(-c3nc(C)n4ccnc(N)c34)c2F)c1Cl [Example 1, 3-(N-(3-(8-amino-3-methylimidazo[1,5-a]pyrazin-1-yl)-2-fluorophenyl)sulfamoyl)-2,5-dichlorobenzyl acetate]
IC50 [1]: 1 to 10 µM
IC50 [2]: 0.1 to 0.5 µM
IC50 [3]: 0.5 to 1 µM
IC50 [4]: 0.5 to 1 µM
H929 NS ATF4 ELISA [5]: ++++ (an ATF4 stim greater than 20-fold)

Cc1nc(-c2cccc(NS(=O)(=O)c3cc(Cl)cc(CO)c3Cl)c2F)c2c(N)nccn12 [Example 2, N-(3-(8-amino-3-methylimidazo[1,5-a]pyrazin-1-yl)-2-fluorophenyl)-2,5-dichloro-3-(hydroxymethyl)benzenesulfonamide]
IC50 [1]: 0.1 to 0.5 µM
IC50 [2]: ≤ 0.1 µM
IC50 [3]: 0.1 to 0.5 µM
IC50 [4]: 0.1 to 0.5 µM
H929 NS ATF4 ELISA [5]: +++ (an ATF4 stim greater than 10-fold and less than or equal to 20-fold)

Nc1ncnn2ccc(-c3cccc(NS(=O)(=O)c4cc(Cl)cc(CO)c4Cl)c3F)c12 [Example 3]
IC50 [1]: 0.1 to 0.5 µM
IC50 [2]: ≤ 0.1 µM
IC50 [3]: 0.1 to 0.5 µM
IC50 [4]: 0.1 to 0.5 µM
H929 NS ATF4 ELISA [5]: ++ (an ATF4 stim greater than 5-fold and less than or equal to 10-fold)

Cc1nc(-c2cc(NS(=O)(=O)c3cc(Cl)cc(CO)c3Cl)cc(F)c2F)c2c(N)nccn12 [Example 4]
IC50 [1]: ≤ 0.1 µM
IC50 [2]: ≤ 0.1 µM
IC50 [3]: 1 to 10 µM
IC50 [4]: 1 to 10 µM
H929 NS ATF4 ELISA [5]: + (an ATF4 stim less than or equal to 5-fold)

CC(C)(C)c1nc(-c2cccc(NS(=O)(=O)c3cc(Cl)cc(CO)c3Cl)c2F)c2c(N)nccn12 [Example 9]
IC50 [1]: 0.1 to 0.5 µM
IC50 [2]: ≤ 0.1 µM
IC50 [3]: 0.1 to 0.5 µM
IC50 [4]: 0.1 to 0.5 µM
H929 NS ATF4 ELISA [5]: +++ (an ATF4 stim greater than 10-fold and less than or equal to 20-fold)

Nc1nccn2c(-c3ccccc3)nc(-c3cccc(NS(=O)(=O)c4cc(Cl)cc(CO)c4Cl)c3F)c12 [Example 12]
IC50 [1]: ≤ 0.1 µM
IC50 [2]: ≤ 0.1 µM
IC50 [3]: 0.1 to 0.5 µM
IC50 [4]: 0.5 to 1 µM
H929 NS ATF4 ELISA [5]: ++++ (an ATF4 stim greater than 20-fold)

Cc1cc(-c2cccc(NS(=O)(=O)c3cc(Cl)cc(CO)c3Cl)c2F)c2c(N)ncnn12 [Example 13]
IC50 [1]: 0.1 to 0.5 µM
IC50 [2]: ≤ 0.1 µM
IC50 [3]: 0.1 to 0.5 µM
IC50 [4]: 0.1 to 0.5 µM
H929 NS ATF4 ELISA [5]: +++ (an ATF4 stim greater than 10-fold and less than or equal to 20-fold)

Nc1nccn2c(C3CC3)nc(-c3cccc(NS(=O)(=O)c4cc(Cl)cc(CO)c4Cl)c3F)c12 [Example 14]
IC50 [1]: ≤ 0.1 µM
IC50 [2]: ≤ 0.1 µM
IC50 [3]: ≤ 0.1 µM
IC50 [4]: 0.1 to 0.5 µM
H929 NS ATF4 ELISA [5]: ++ (an ATF4 stim greater than 5-fold and less than or equal to 10-fold)

CC(C)c1nc(-c2cccc(NS(=O)(=O)c3cc(Cl)cc(CO)c3Cl)c2F)c2c(N)nccn12 [Example 16]
IC50 [1]: ≤ 0.1 µM
IC50 [2]: ≤ 0.1 µM
IC50 [3]: ≤ 0.1 µM
IC50 [4]: 0.1 to 0.5 µM
H929 NS ATF4 ELISA [5]: +++ (an ATF4 stim greater than 10-fold and less than or equal to 20-fold)

Nc1nccn2c(C3CCC3)nc(-c3cccc(NS(=O)(=O)c4cc(Cl)cc(CO)c4Cl)c3F)c12 [Example 17]
IC50 [1]: ≤ 0.1 µM
IC50 [2]: ≤ 0.1 µM
IC50 [3]: 0.1 to 0.5 µM
IC50 [4]: 0.1 to 0.5 µM
H929 NS ATF4 ELISA [5]: +++ (an ATF4 stim greater than 10-fold and less than or equal to 20-fold)

NC(=O)c1cc(-c2cccc(NS(=O)(=O)c3cc(Cl)cc(CO)c3Cl)c2F)c2c(N)ncnn12 [Example 18]
IC50 [1]: ≤ 0.1 µM
IC50 [2]: ≤ 0.1 µM
IC50 [3]: 0.1 to 0.5 µM
IC50 [4]: 0.5 to 1 µM
H929 NS ATF4 ELISA [5]: ++ (an ATF4 stim greater than 5-fold and less than or equal to 10-fold)

Nc1nccn2c(-c3cn[nH]c3)nc(-c3cccc(NS(=O)(=O)c4cc(Cl)cc(CO)c4Cl)c3F)c12 [Example 19]
IC50 [1]: ≤ 0.1 µM
IC50 [2]: ≤ 0.1 µM
IC50 [3]: 0.1 to 0.5 µM
IC50 [4]: 0.5 to 1 µM
H929 NS ATF4 ELISA [5]: ++ (an ATF4 stim greater than 5-fold and less than or equal to 10-fold)

Cn1cc(-c2nc(-c3cccc(NS(=O)(=O)c4cc(Cl)cc(CO)c4Cl)c3F)c3c(N)nccn23)cn1 [Example 20]
IC50 [1]: ≤ 0.1 µM
IC50 [2]: ≤ 0.1 µM
IC50 [3]: ≤ 0.1 µM
IC50 [4]: ≤ 0.1 µM
H929 NS ATF4 ELISA [5]: ++ (an ATF4 stim greater than 5-fold and less than or equal to 10-fold)

CSc1nc(-c2cccc(NS(=O)(=O)c3cc(Cl)cc(CO)c3Cl)c2F)c2c(N)nccn12 [Example 21]
IC50 [1]: ≤ 0.1 µM
IC50 [2]: ≤ 0.1 µM
IC50 [3]: 0.1 to 0.5 µM
IC50 [4]: 0.1 to 0.5 µM
H929 NS ATF4 ELISA [5]: +++ (an ATF4 stim greater than 10-fold and less than or equal to 20-fold)

CNC(=O)c1nc(-c2cccc(NS(=O)(=O)c3cc(Cl)cc(CO)c3Cl)c2F)c2c(N)nccn12 [Example 22]
IC50 [1]: ≤ 0.1 µM
IC50 [2]: ≤ 0.1 µM
IC50 [3]: 0.1 to 0.5 µM
IC50 [4]: 0.1 to 0.5 µM
H929 NS ATF4 ELISA [5]: ++++ (an ATF4 stim greater than 20-fold)

CNc1nc(-c2cccc(NS(=O)(=O)c3cc(Cl)cc(CO)c3Cl)c2F)c2c(N)nccn12 [Example 26]
IC50 [1]: ≤ 0.1 µM
IC50 [2]: ≤ 0.1 µM
IC50 [3]: 0.1 to 0.5 µM
IC50 [4]: 0.1 to 0.5 µM
H929 NS ATF4 ELISA [5]: ++ (an ATF4 stim greater than 5-fold and less than or equal to 10-fold)

Cn1cc(-c2cccc(NS(=O)(=O)c3cc(F)c(Br)cc3F)c2F)c2c(N)ncnc21 [Example 38]
IC50 [1]: 1 to 10 µM
IC50 [2]: ≤ 0.1 µM
IC50 [3]: 1 to 10 µM
IC50 [4]: 0.1 to 0.5 µM
H929 NS ATF4 ELISA [5]: + (an ATF4 stim less than or equal to 5-fold)
